{
  "source": "ChEMBL document CHEMBL5226358",
  "about": "“Discovery of Dimeric Arylsulfonamides as Potent ADAM8 Inhibitors” (ACS Med Chem Lett, 2021)",
  "key": {"[1]": {"target": "T1, Disintegrin and metalloproteinase domain-containing protein 8 (Homo sapiens) (UniProt P78325)", "T1 sequence (whole entry)": "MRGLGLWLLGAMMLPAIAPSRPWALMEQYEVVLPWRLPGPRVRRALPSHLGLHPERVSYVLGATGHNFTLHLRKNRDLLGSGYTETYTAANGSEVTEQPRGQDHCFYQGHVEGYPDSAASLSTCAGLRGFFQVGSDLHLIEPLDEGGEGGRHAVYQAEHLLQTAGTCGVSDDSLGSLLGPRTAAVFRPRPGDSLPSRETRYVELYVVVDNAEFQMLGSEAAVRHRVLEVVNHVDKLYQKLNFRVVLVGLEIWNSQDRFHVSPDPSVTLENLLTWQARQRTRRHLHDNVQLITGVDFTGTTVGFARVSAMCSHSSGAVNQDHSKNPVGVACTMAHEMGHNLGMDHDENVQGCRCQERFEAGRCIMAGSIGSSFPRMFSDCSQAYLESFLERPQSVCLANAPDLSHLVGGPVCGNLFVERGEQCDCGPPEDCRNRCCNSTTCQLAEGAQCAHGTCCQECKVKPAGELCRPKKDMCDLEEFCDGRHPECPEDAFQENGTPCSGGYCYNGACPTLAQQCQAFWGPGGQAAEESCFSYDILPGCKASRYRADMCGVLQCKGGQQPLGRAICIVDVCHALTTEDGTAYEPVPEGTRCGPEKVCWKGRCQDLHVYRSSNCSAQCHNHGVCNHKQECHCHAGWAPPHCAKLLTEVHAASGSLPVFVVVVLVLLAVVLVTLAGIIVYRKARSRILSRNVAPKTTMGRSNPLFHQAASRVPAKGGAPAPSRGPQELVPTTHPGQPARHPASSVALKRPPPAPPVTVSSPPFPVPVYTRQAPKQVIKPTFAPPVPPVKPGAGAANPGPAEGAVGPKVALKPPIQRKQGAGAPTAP", "assay": "Inhibition of ADAM8 in human MDA-MB-231 cells assessed as inhibition of ERK1/2 phosphorylation at Thr202/Tyr204 residues at 10 uM incubated for 48 hrs by western blot analysis", "format": "cell-based"}, "[2]": {"target": "T1, Disintegrin and metalloproteinase domain-containing protein 8 (Homo sapiens)", "assay": "Inhibition of ADAM8 in human MDA-MB-231 cells assessed as inhibition of Akt phosphorylation at Ser473 residue at 10 uM incubated for 48 hrs by western blot analysis", "format": "cell-based"}},
  "note": "Calls of active or inactive are those of the source. The rule behind the calls is not given here.",
  "data": [
    {"smiles": "O=C(CCCNC(=O)c1cccc(C(=O)NCCCC(=O)NCCC[C@@H](NS(=O)(=O)c2ccc(OCc3cc(Br)cc(Br)c3)cc2)C(=O)NO)c1)NCCC[C@@H](NS(=O)(=O)c1ccc(OCc2cc(Br)cc(Br)c2)cc1)C(=O)NO", "values": [
      {"measurement": "inhibition", "setting": "[1]", "result": "inactive"},
      {"measurement": "inhibition", "setting": "[2]", "result": "inactive"}
    ]},
    {"smiles": "O=C(NCCC[C@@H](NS(=O)(=O)c1ccc(OCc2cc(Br)cc(Br)c2)cc1)C(=O)NO)c1cccc(C(=O)NCCC[C@@H](NS(=O)(=O)c2ccc(OCc3cc(Br)cc(Br)c3)cc2)C(=O)NO)c1", "values": [
      {"measurement": "inhibition", "setting": "[1]", "result": "inactive"},
      {"measurement": "inhibition", "setting": "[2]", "result": "inactive"}
    ]},
    {"smiles": "O=C(NCCC[C@@H](NS(=O)(=O)c1ccc(OCc2cc(Br)cc(Br)c2)cc1)C(=O)NO)NCCC[C@@H](NS(=O)(=O)c1ccc(OCc2cc(Br)cc(Br)c2)cc1)C(=O)NO", "values": [
      {"measurement": "inhibition", "setting": "[1]", "result": "inactive"},
      {"measurement": "inhibition", "setting": "[2]", "result": "inactive"}
    ]}
  ]
}
